Results as given in patent publication US10023519B2, “Cyclobutane containing carboxylic acid GPR120 modulators” (BRISTOL-MYERS SQUIBB COMPANY, priority 2014, dated 2018).

Target: human GPR120 (Homo sapiens (Human), UniProt Q5NUL3)
Assay: GPR120 pERK AlphaScreen SureFire Assay (human)
Assay type: cell-based
Conditions: CHO cells stably transfected with short form of human GPR120
Description: GPR120 activity was monitored by measuring phosphorylation of ERK (pERK), since G protein receptors are known to activate the ERK signaling cascade either directly and/or through recruitment of arrestin that serves as a scaffold for downstream signaling events.
GPR120 pERK AlphaScreen SureFire Assay
The human and mouse GPR120-mediated intracellular phosphorylated ERK assays were established using CHOA12 cells stably transfected with the short form of human or mouse GPR120 receptor. […] Cells were cryo preserved at a concentration of 2×10^7 cells/mL, in 90% Charcoal/Dextran FBS and 10% DMSO, and frozen in liquid nitrogen at a low passage number.
The flasks were placed in a tissue culture incubator overnight (37° C., 5% CO2). […] The next day, cells were serum starved in 30 μL of F-12 media without any serum or antibiotics for 2 hours at 37° C.
Cells were then stimulated with 50 nL of compound dilutions using ECHO liquid handler for 7 minutes at 37° C.
(§1) The lysis buffer was diluted 5-fold with water before use. […] The SureFire assay reagent mix was prepared by mixing 60 parts Reaction Buffer, 10 parts Activation Buffer, 1 part Donor Beads, 1 part Acceptor Beads (Perkin Elmer Cat. #TGRES10K). 3.5 μL/well of this reagent mix was manually added to the proxiplate with a multichannel pipettor. Plates were spun down at 1000 rpm for 2 minutes, followed by light-protected incubation at room temperature for 2 hours. The plates were read on the Alpha-technology compatible Envision multilabel plate reader using AlphaScreen protocol according to manufacturer's specifications. The agonist effect of compounds was expressed as 100× (average sample−average blank)/(average total−average blank) where sample is the luminescence activity in the presence of test compound, blank is equal to the luminescence activity in the presence of DMSO control and the total is signal induced by 50 μM linolenic acid as reference compound. Activation data for the test compound over a range of concentrations was plotted as percentage activation of the test compound (100%=maximum response). After correcting for background, EC50 values were determined.
The human and mouse GPR120-mediated intracellular phosphorylated ERK assays were also established using CHO-K1 cells stably transfected with the short form of human or mouse GPR120 receptor. […] Cells were cryo preserved at a concentration of 3×10^6 cells/mL, in 70% F-12, 20% Charcoal/Dextran FBS and 10% DMSO, and frozen in liquid nitrogen at a low passage number.
The flasks were placed in a tissue culture incubator overnight (37° C., 5% CO2).
Cells were then stimulated with 40 nL of compound dilutions using ECHO liquid handler for 7 minutes at 37° C.
as §1, with “compound.” for “compound. Activation data for the test compound over a range of concentrations was plotted as percentage activation of the test compound (100%=maximum response). After correcting for background, EC50 values were determined.”
Activation data for the test compound over a range of concentrations was plotted as percentage activation of the test compound (100%=maximum response). After correcting for background, EC50 values were determined.

Sequence of human GPR120 (Q5NUL3 whole entry): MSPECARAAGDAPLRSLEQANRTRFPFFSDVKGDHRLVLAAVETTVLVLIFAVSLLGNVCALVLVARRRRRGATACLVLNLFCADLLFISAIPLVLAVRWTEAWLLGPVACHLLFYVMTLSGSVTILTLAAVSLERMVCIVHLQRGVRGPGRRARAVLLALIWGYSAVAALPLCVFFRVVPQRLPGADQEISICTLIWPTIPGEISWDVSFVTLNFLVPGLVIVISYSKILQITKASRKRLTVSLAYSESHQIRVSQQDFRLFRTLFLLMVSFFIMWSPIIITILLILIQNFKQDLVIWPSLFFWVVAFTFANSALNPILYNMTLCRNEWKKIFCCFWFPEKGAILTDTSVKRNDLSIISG

Compound	EC50
CC1(C)Cc2cc(Cl)cc(-c3ccc([C@H]4C[C@@H](OCC(=O)O)C4)cc3)c2O1 [Example 24, Cis-2-(3-(4-(5-chloro-2,2-dimethyl-2,3-dihydrobenzofuran-7-yl)phenyl)cyclobutoxy) acetic acid]	2900 nM
C[C@]1(CCCOCCC(=O)O)C[C@@H](c2cccc(Oc3ccccc3)c2)C1 [Example 62, 3-(3-(Cis-1-methyl-3-(3-phenoxyphenyl)cyclobutyl)propoxy)propanoic acid]	570 nM
CC(C)Sc1ncc(C(F)(F)F)cc1-c1ccc([C@H]2C[C@@H](OCC(=O)O)C2)cc1 [Example 13, Cis-2-(3-(4-(2-(isopropylthio)-5-(trifluoromethyl)pyridin-3-yl)phenyl)cyclobutoxy)acetic acid]	2610 nM
O=C(O)CO[C@H]1C[C@@H](c2ccc(-c3cc(OC4CCCC4)ccc3F)cc2)C1 [Example 3, Cis-2-(3-(5′-(cyclopentyloxy)-2′-fluoro-[1,1′-biphenyl]-4-yl)cyclobutoxy)acetic acid]	410 nM
O=C(O)CO[C@H]1C[C@@H](c2ccc(-c3cc(Oc4cccnc4)ccc3F)cc2)C1 [Example 28, Cis-2-(3-(2′-fluoro-5′-(pyridin-3-yloxy)-[1,1′-biphenyl]-4-yl)cyclobutoxy) acetic acid]	660 nM
O=C(O)CO[C@H]1C[C@@H](c2ccc(-c3cc(Oc4cccc(F)c4)cnc3Cl)cc2)C1 [Example 22, Cis-2-(3-(4-(2-Chloro-5-(3-fluorophenoxy)pyridin-3-yl)phenyl)cyclobutoxy)acetic acid]	360 nM
Cc1ncc(Oc2ccc(F)c(-c3ccc([C@H]4C[C@@H](OCC(=O)O)C4)cc3)c2)s1 [Example 27, Cis-2-(3-(2′-fluoro-5′-((2-methylthiazol-5-yl)oxy)-[1,1′-biphenyl]-4-yl)cyclobutoxy)acetic acid]	420 nM
CC(C)Oc1cccc(-c2ccc([C@H]3C[C@@H](OCC(=O)O)C3)cc2)c1 [Example 7, Cis-2-(3-(3′-isopropoxy-[1,1′-biphenyl]-4-yl)cyclobutoxy) acetic acid]	590 nM
CC(C)Oc1ccc(F)c(-c2ccc([C@H]3C[C@@H](CC(=O)O)C3)cc2)c1 [Example 45, 2-(Cis-3-(2′-fluoro-5′-isopropoxy-[1,1′-biphenyl]-4-yl)cyclobutyl)acetic acid]	120 nM
O=C(O)CO[C@H]1C[C@@H](c2ccc(-c3cc(OC4CCCCC4)ccc3F)cc2)C1 [Example 33, Cis-2-(3-(5′-(cyclohexyloxy)-2′-fluoro-[1,1′-biphenyl]-4-yl)cyclobutoxy)acetic acid]	760 nM
Cc1ccc(Oc2cc(F)c(F)c(-c3ccc([C@H]4C[C@@H](OCC(=O)O)C4)cc3)c2)cc1 [Example 38, Cis-2-(3-(2′,3′-difluoro-5′-(p-tolyloxy)-[1,1′-biphenyl]-4-yl)cyclobutoxy)acetic acid]	540 nM
O=C(O)[C@H]1C[C@H](Oc2ccc(-c3cc(Oc4ccccc4)ccc3F)cc2)C1 [Example 64, Trans-3-((2′-fluoro-5′-phenoxy-[1,1′-biphenyl]-4-yl)oxy)cyclobutanecarboxylic acid]	440 nM
Cc1ccc(Oc2ccc(F)c(-c3ccc([C@H]4C[C@@H](OCC(=O)O)C4)cc3)c2)cc1 [Example 31, Cis-2-(3-(2′-fluoro-5′-(p-tolyloxy)-[1,1′-biphenyl]-4-yl)cyclobutoxy)acetic acid]	710 nM
CC(C)Oc1ccc(F)c(-c2ccc([C@H]3C[C@@H](OCC(=O)O)C3)cc2)c1F [Example 15, Cis-2-(3-(2′,6′-difluoro-3′-isopropoxy-[1,1′-biphenyl]-4-yl)cyclobutoxy)acetic acid]	800 nM
O=C(O)CCOC[C@H]1C[C@@H](OCc2cccc(Oc3ccccc3)c2)C1 [Example 55, 3-((Cis-3-(3-phenoxybenzyloxy)cyclobutyl)methoxy)propanoic acid]	470 nM
O=C(O)CCC[C@H]1C[C@@H](OCc2cccc(Oc3ccccc3)c2)C1 [Example 53, 4-(Cis-3-(3-phenoxybenzyloxy)cyclobutyl)butanoic acid]	430 nM

Compound	EC50
O=C(O)CO[C@H]1C[C@@H](c2ccc(-c3cc(Oc4ccc(F)cc4)cc(F)c3F)cc2)C1 [Example 34, Cis-2-(3-(2′,3′-difluoro-5′-(4-fluorophenoxy)-[1,1′-biphenyl]-4-yl)cyclobutoxy)acetic acid]	240 nM
O=C(O)CO[C@H]1C[C@H](c2ccc(-c3cc(Oc4ccccc4)ccc3F)cc2)C1 [Example 39, Trans-2-(3-(2′-fluoro-5′-phenoxy-[1,1′-biphenyl]-4-yl)cyclobutoxy)acetic acid]	410 nM
COc1cc(OC(C)C)cc(-c2ccc([C@H]3C[C@@H](OCC(=O)O)C3)cc2)c1 [Example 19, Cis-2-(3-(3′-isopropoxy-5′-methoxy-[1,1′-biphenyl]-4-yl)cyclobutoxy)acetic acid]	1590 nM
Cc1nc(-c2ccccc2)c(-c2ccc([C@H]3C[C@@H](OCC(=O)O)C3)cc2)s1 [Example 23, Cis-2-(3-(4-(2-Methyl-4-phenylthiazol-5-yl)phenyl)cyclobutoxy)acetic acid]	3460 nM
Cc1ccc(Oc2cc(F)c(F)c(-c3ccc([C@H]4C[C@@H](OCC(=O)O)C4)cc3)c2)cc1F [Example 35, Cis-2-(3-(2′,3′-difluoro-5′-(3-fluoro-4-methylphenoxy)-[1,1′-biphenyl]-4-yl)cyclobutoxy)acetic acid]	290 nM
O=C(O)COCCC[C@H]1C[C@@H](OCc2cccc(Oc3ccccc3)c2)C1 [Example 59, 2-(3-(Cis-3-(3-phenoxybenzyloxy)cyclobutyl)propoxy)acetic acid]	520 nM
O=C(O)C[C@H]1C[C@@H](Oc2ccc(-c3cc(Oc4ccccc4)ccc3F)cc2)C1 [Example 67, Cis-2-(3-((2′-fluoro-5′-phenoxy-[1,1′-biphenyl]-4-yl)oxy)cyclobutyl)acetic acid]	330 nM
O=C(O)CO[C@H]1C[C@@H](c2ccc(-c3cc(Oc4ccncc4)ccc3F)cc2)C1 [Example 25, Cis-2-(3-(2′-fluoro-5′-(pyridin-4-yloxy)-[1,1′-biphenyl]-4-yl)cyclobutoxy)acetic acid]	1900 nM
CC(C)Oc1ccc(F)c(-c2ccc(C[C@H]3C[C@@H](CC(=O)O)C3)cc2)c1 [Example 51, 2-(Cis-3-((2′-fluoro-5′-isopropoxy-[1,1′-biphenyl]-4-yl)methyl)cyclobutyl)acetic acid]	560 nM
CC(C)Oc1ccc(F)c(-c2ccc(C=C3CC(C(=O)O)C3)cc2)c1 (stereo not shown) [Example 47, 3-((2′-Fluoro-5′-isopropoxy-[1,1′-biphenyl]-4-yl)methylene)cyclobutanecarboxylic acid]	460 nM
CC(C)Oc1ccc(F)c(-c2ccc(C3CC4(C3)CC4C(=O)O)cc2)c1 (single isomer, unassigned) [Example 42, 5-(2′-Fluoro-5′-isopropoxy-[1,1′-biphenyl]-4-yl)spiro[2.3]hexane-1-carboxylic acid]	2210 nM
Cc1cc(OC(C)C)cc(-c2ccc([C@H]3C[C@@H](OCC(=O)O)C3)cc2)c1 [Example 12, Cis-2-(3-(3′-isopropoxy-5′-methyl-[1,1′-biphenyl]-4-yl)cyclobutoxy) acetic acid]	430 nM
CC(C)Oc1cccc(-c2ccc([C@H]3C[C@@H](OCC(=O)O)C3)cc2)c1F [Example 10, Cis-2-(3-(2′-fluoro-3′-isopropoxy-[1,1′-biphenyl]-4-yl)cyclobutoxy) acetic acid]	1020 nM
CC(C)Oc1ccc(F)c(-c2ccc(C3CC(CC(=O)O)C3)cc2)c1 (stereo not shown) [Example 43, 2-(3-(2′-Fluoro-5′-isopropoxy-[1,1′-biphenyl]-4-yl)cyclobutyl)acetic acid]	210 nM
O=C(O)[C@H]1CC1[C@H]1C[C@@H](c2ccc(-c3cc(Oc4ccccc4)ccc3F)cc2)C1 (stereo in doubt) [Example 40, 2-(3-(2′-Fluoro-5′-phenoxy-[1,1′-biphenyl]-4-yl)cyclobutyl)cyclopropanecarboxylic acid]	9270 nM
